Data taken from patent US11752077B2, “Oily moisturizer and topical skin composition containing same” (The Nisshin OilliO Group, Ltd., priority 2017, dated 2023).

Experiments:
[1] = system: stratum corneum moisture content of the skin (forearm); assay: Evaluation test of moisture retention effect upon single application (esterified products, oils, glycerol applied neat); type: in vivo, human
Description: In the present invention, the moisture retention effect of the esterified product, namely the improvement effect on the moisture retention function of the skin, was evaluated based on the change in the stratum corneum moisture content of the skin before and after application of the esterified product. Measurement of the stratum corneum moisture content was performed using a stratum corneum moisture content measuring device (device name: SKICON-200), manufactured by IBS Co., Ltd. This stratum corneum moisture content measuring device is a device that is widely used for measuring the moisturestate of the stratum corneum, and is a device that measures the electrical conductivity (μS) of the stratum corneum. The larger the skin moisture content, the higher the electrical conductivity of the stratum corneum becomes. Accordingly, the electrical conductivity (μS) measured using the stratum corneum moisture content measuring device was deemed to indicate the stratum corneum moisture content. The skin moisture retention effect of each test sample was evaluated by applying the test sample directly to washed skin, and then measuring the change in the skin stratum corneum moisture content after wiping the test sample off the skin using a cotton swab soaked in hexane. The skin stratum corneum moisture content measurement test was conducted on a plurality of panelists in the season from autumn to spring when the skin is prone to dryness. Further, in order to remove the effects of room temperature and humidity on the measurement results, the tests were performed in a room in which the room temperature had been adjusted to 18 to 22° C. and the humidity had been adjusted to 40 to 55% RH. Specifically, first, the forearm of the person was washed with soap, and the person was then held for 30 minutes in a room in which the room temperature and the humidity had been controlled within the above ranges to acclimatize the skin of the forearm to the measurement environment, thus completing preparations for the initial conditions for measurement. […] Subsequently, 40 μL of the test sample being evaluated was applied uniformly to the square measurement region of the forearm. Sixty minutes after the application, a cotton swab that had been immersed in hexane was used to wipe off the test sample, and 30 minutes after the test sample had been wiped off, the stratum corneum moisture content of the wiped region of the skin (the stratum corneum moisture content upon test completion) was measured. Further, when evaluating the moisture retention effect of the test sample, in order to consider and subtract the change in the state of the skin during the measurement period, the stratum corneum moisture content of a portion of the skin to which the sample had not been applied was also measured prior to test commencement and upon test completion, and the change in the stratum corneum moisture content of this uncoated portion was calculated. A moisture retention effect value (μS) was determined from the measured values for the skin stratum corneum moisture content based on the formulas below. The moisture retention effect value (μS) for each test sample was calculated as the average value for the moisture retention effect values (μS) across five panelists. […] Based on the moisture retention effect value (μS) for each test sample, the moisture retention effect of each test sample was evaluated using the criteria in Table 43. […] Using various commercially available oils and glycerol, the <Evaluation of moisture retention upon single application> described above was conducted to ascertain the moisture retention effect. […] The glycerol of Comparative Example 21 is a typical aqueous moisturizer, and is widely used as a moisturizer. […] With the exception of changing the removal solvent from hexane to water, the evaluation conditions were the same as those described above in the <Evaluation of moisture retention upon single application>.

[2] = system: stratum corneum moisture content of the skin (forearm); assay: as above; type: in vivo, human; settings: 60 minutes after application, glycerol still applied to the skin surface, prior to removal using water
[3] = single application of commercially available oil or glycerol to skin, measured after removal (hexane swab; water swab for glycerol)
[4] = single application of commercially available oil or glycerol, class from moisture retention effect value
[5] = esterified product applied neat, 40 μL on 3 cm x 3 cm forearm region, wiped off with hexane after 60 minutes, measured 30 minutes later, average of five panelists
[6] = esterified product applied neat, 40 μL on forearm, wiped off with hexane after 60 minutes, measured 30 minutes later, five panelists

Compound	Moisture retention effect value ([1]; removal after 60 minutes with cotton swab immersed in water rather than hexane, measured 30 minutes later) [μS]	Moisture retention effect value [1, 3] [μS]	Moisture retention evaluation result [1, 4]	increase in the electrical conductivity that corresponds with the moisture retention effect value [2] [μS]	Moisture retention effect value [1, 5] [μS]	Moisture retention evaluation result [1, 6]
OCC(O)CO [Comparative Example 21, glycerol]	8	8	e1 (less than 40)	477		
CC(C)CCCCCCCCCCCCCCC(=O)OCC(C)C [Comparative Example 9, isobutyl isostearate]					47	
caprylate ester of ditrimethylolpropane [Example 2]					87	a1 (70 or greater)
caprate ester of ditrimethylolpropane [Example 3]					70	a1 (70 or greater)
CCCCC(CC)C(=O)OCC(COC(=O)C(CC)CCCC)OC(=O)C(CC)CCCC (centres unmarked) [Comparative Example 14, glyceryl tri(2-ethylhexanoate)]		32	e1 (less than 40)			
